Results as given in patent publication US12173018B2, “Penicillin-binding protein inhibitors” (priority 2018, dated 2024).
Values after ≈ are worked out from the molar mass of the structure shown. Like-named read-outs stand apart in the source and are kept apart here.

Tests used:
Assay type in all cases: cell-based
E. coli ATCC 25922 = test: Broth microdilution MIC, E. coli ATCC 25922; conditions: Escherichia coli
Method in brief: (§1)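 Colonies from Mueller Hinton II agar were grown 3-5 hours at 37° C in cation-supplemented broth, adjusted by OD600, then added to 2-fold compound dilutions at 5×10^5 CFU/mL. After 16-20 hours at 37° C, MICs were scored visually.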

E. coli 901C = test: microbe, parasite or virus in culture; conditions: Escherichia coli; hyper-permeable E. coli 901C, broth microdilution; read-out: MIC E. coli 901C
Method in brief: as §1

E. coli AG100A = test: microbe, parasite or virus in culture; conditions: Escherichia coli, read-out: MIC E. coli AG100A
Method in brief: as §1

E. coli D22 = test: microbe, parasite or virus in culture; conditions: Escherichia coli; hyper-permeable E. coli D22, broth microdilution; read-out: MIC E. coli D22
Method in brief: as §1

K. pneumoniae SI-117 = test: microbe, parasite or virus in culture; conditions: Klebsiella pneumoniae, SI117, read-out: MIC K. pneumoniae SI-117
Method in brief: as §1

K. pneumoniae UMM = test: microbe, parasite or virus in culture; conditions: Klebsiella pneumoniae; K. pneumoniae UMM producing SHV-5 and KPC-2; read-out: MIC K. pneumoniae UMM
Method in brief: as §1

N. gonorrhoeae FA1090 = test: Liquid broth MIC, N. gonorrhoeae FA1090; conditions: Neisseria gonorrhoeae; N. gonorrhoeae FA1090, liquid broth; read-out: Minimum Inhibitory Concentration, N. gonorrhoeae FA1090
Method in brief: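 Broth microdilution, 2-fold compound series; start inoculum 5×10^5 CFU/mL (OD600-adjusted, GC broth pH 7.2, Kellogg's suppl.). 40-42 h, 36° C, 5% CO2. MIC = lowest conc., no visible growth.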

[1] = ATCC25922, E. coli ATCC 25922, broth microdilution, read-out: MIC E. coli 25922

Row | Compound | MIC (E. coli ATCC 25922; [1]) [µg/mL] | MIC (E. coli 901C) [µg/mL] | MIC (E. coli AG100A) [µg/mL] | MIC (E. coli D22) [µg/mL] | MIC (K. pneumoniae SI-117) [µg/mL] | MIC (K. pneumoniae UMM) [µg/mL] | MIC (N. gonorrhoeae FA1090) [µg/mL] | MIC (E. coli ATCC 25922; ATCC25922, read-out: MIC E. coli 25922) [µg/mL]
1 | CCN1CCN(C(=O)NC(C(=O)N[C@H]2Cc3cccc(C(=O)O)c3OB2O)c2csc(N)n2)C(=O)C1=O (stereo partly drawn) [Example 5, (3R)-3-(2-(2-aminothiazol-4-yl)-2-(4-ethyl-2,3-dioxopiperazine-1-carboxamido)acetamido)-2-hydroxy-3,4-dihydro-2H-benzo[e][1,2]oxaborinine-8-carboxylic acid] | 8 to 16 | < 0.25 | 2 to 4 | 2 to 4 | 8 to 16 | 8 to 16 | < 0.125 | –
2 | CCN1CCN(C(=O)NC(C(=O)N[C@H]2Cc3cc(F)cc(C(=O)O)c3OB2O)c2csc(N)n2)C(=O)C1=O (stereo partly drawn) [Example 16, (3R)-3-(2-(2-aminothiazol-4-yl)-2-(4-ethyl-2,3-dioxopiperazine-1-carboxamido)acetamido)-6-fluoro-2-hydroxy-3,4-dihydro-2H-benzo[e][1,2]oxaborinine-8-carboxylic acid] | 32 to 64 | 0.5 to 1 | 2 to 4 | 8 to 16 | 32 to 64 | 32 to 64 | – | –
3 | CCN1CCN(C(=O)NC(C(=O)N[C@H]2Cc3cccc(C(=O)O)c3OB2O)c2ccc(O)cc2)C(=O)C1=O (stereo partly drawn) [Example 27, (3R)-3-(2-(4-ethyl-2,3-dioxopiperazine-1-carboxamido)-2-(4-hydroxyphenyl)acetamido)-2-hydroxy-3,4-dihydro-2H-benzo[e][1,2]oxaborinine-8-carboxylic acid] | – | 0.5 to 1 | 2 to 4 | 8 to 16 | 32 to 64 | 32 to 64 | – | 32 to 64
4 | CCN1CCN(C(=O)NC(C(=O)N[C@H]2Cc3cccc(C(=O)O)c3OB2O)c2ccc(O)c(O)c2Cl)C(=O)C1=O (stereo partly drawn) [Example 37, (3R)-3-(2-(2-chloro-3,4-dihydroxyphenyl)-2-(4-ethyl-2,3-dioxopiperazine-1-carboxamido)acetamido)-2-hydroxy-3,4-dihydro-2H-benzo[e][1,2]oxaborinine-8-carboxylic acid] | 32 to 64 | 0.5 to 1 | 2 to 4 | – | – | 8 to 16 | 1 to 2 (≈ 1.74 to 3.48 µM) | –
5 | CCN1CCN(C(=O)NC(C(=O)N[C@H]2Cc3cccc(C(=O)O)c3OB2O)c2cnc(N)s2)C(=O)C1=O (stereo partly drawn) [Example 51, (3R)-3-(2-(2-aminothiazol-5-yl)-2-(4-ethyl-2,3-dioxopiperazine-1-carboxamido)acetamido)-2-hydroxy-3,4-dihydro-2H-benzo[e][1,2]oxaborinine-8-carboxylic acid] | 8 to 16 | 0.5 to 1 | 8 to 16 | – | – | 32 to 64 | – | –
6 | CCCN1CCN(C(=O)NC(C(=O)N[C@H]2Cc3cccc(C(=O)O)c3OB2O)c2ccc(O)c(O)c2Cl)C(=O)C1=O (stereo partly drawn) [Example 82, (3R)-3-(2-(2-chloro-3,4-dihydroxyphenyl)-2-(2,3-dioxo-4-propylpiperazine-1-carboxamido)acetamido)-2-hydroxy-3,4-dihydro-2H-benzo[e][1,2]oxaborinine-8-carboxylic acid] | 32 to 64 | 2 to 4 | 2 to 4 | 2 to 4 | 32 to 64 | 32 to 64 | – | –
7 | CCN1CCN(C(=O)NC(C(=O)N[C@H]2Cc3cccc(C(=O)O)c3OB2O)c2ccc(O)cc2F)C(=O)C1=O (stereo partly drawn) [Example 87, (3R)-3-(2-(4-ethyl-2,3-dioxopiperazine-1-carboxamido)-2-(2-fluoro-4-hydroxyphenyl)acetamido)-2-hydroxy-3,4-dihydro-2H-benzo[e][1,2]oxaborinine-8-carboxylic acid] | – | – | – | – | – | – | < 0.125 | –
8 | CCN1CCN(C(=O)NC(C(=O)N[C@H]2Cc3cccc(C(=O)O)c3OB2O)c2cc(O)c(O)cc2F)C(=O)C1=O (stereo partly drawn) [Example 90, (3R)-3-(2-(4-ethyl-2,3-dioxopiperazine-1-carboxamido)-2-(2-fluoro-4,5-dihydroxyphenyl)acetamido)-2-hydroxy-3,4-dihydro-2H-benzo[e][1,2]oxaborinine-8-carboxylic acid] | 8 to 16 | 0.5 to 1 | 2 to 4 | 8 to 16 | > 128 | 8 to 16 | – | –
9 | CCN1CCN(C(=O)NC(C(=O)N[C@H]2Cc3cccc(C(=O)O)c3OB2O)c2ccc(S(N)(=O)=O)cc2)C(=O)C1=O (stereo partly drawn) [Example 102, (3R)-3-(2-(4-ethyl-2,3-dioxopiperazine-1-carboxamido)-2-(4-sulfamoylphenyl)acetamido)-2-hydroxy-3,4-dihydro-2H-benzo[e][1,2]oxaborinine-8-carboxylic acid] | 32 to 64 | < 0.25 | 2 to 4 | – | – | 32 to 64 | < 0.125 | –
10 | NS(=O)(=O)c1ccc(C(NC(=O)N2CCN(CCF)C(=O)C2=O)C(=O)N[C@H]2Cc3cccc(C(=O)O)c3OB2O)cc1 (stereo partly drawn) [Example 103, (3R)-3-(2-(4-(2-fluoroethyl)-2,3-dioxopiperazine-1-carboxamido)-2-(4-sulfamoylphenyl)acetamido)-2-hydroxy-3,4-dihydro-2H-benzo[e][1,2]oxaborinine-8-carboxylic acid] | 32 to 64 | < 0.25 | 2 to 4 | – | – | 32 to 64 | < 0.125 | –
11 | CCN1CCN(C(=O)NC(C(=O)N[C@H]2Cc3cccc(C(=O)O)c3OB2O)c2cccc(N)n2)C(=O)C1=O (stereo partly drawn) [Example 104, (3R)-3-(2-(6-aminopyridin-2-yl)-2-(4-ethyl-2,3-dioxopiperazine-1-carboxamido)acetamido)-2-hydroxy-3,4-dihydro-2H-benzo[e][1,2]oxaborinine-8-carboxylic acid] | 8 to 16 | < 0.25 | 0.5 to 1 | 2 to 4 | 32 to 64 | 32 to 64 | – | –
12 | CCN1CCN(C(=O)NC(C(=O)N[C@H]2Cc3cccc(C(=O)[O-])c3OB2O)c2ccc[n+](CC(N)=O)c2)C(=O)C1=O (stereo partly drawn) [Example 107, (3R)-3-(2-(1-(2-amino-2-oxoethyl)pyridin-1-ium-3-yl)-2-(4-ethyl-2,3-dioxopiperazine-1-carboxamido)acetamido)-2-hydroxy-3,4-dihydro-2H-benzo[e][1,2]oxaborinine-8-carboxylate] | 32 to 64 | 8 to 16 | 8 to 16 | 32 to 64 | 32 to 64 | 32 to 64 | – | –
13 | CCN1CCN(C(=O)NC(C(=O)N[C@H]2Cc3ccc(F)c(C(=O)O)c3OB2O)c2csc(N)n2)C(=O)C1=O (stereo partly drawn) [Example 109, (3R)-3-(2-(2-aminothiazol-4-yl)-2-(4-ethyl-2,3-dioxopiperazine-1-carboxamido)acetamido)-7-fluoro-2-hydroxy-3,4-dihydro-2H-benzo[e][1,2]oxaborinine-8-carboxylic acid] | 8 to 16 | 0.5 to 1 | 8 to 16 | 2 to 4 | 8 to 16 | 8 to 16 | 0.25 to 0.5 (≈ 0.456 to 0.912 µM) | –
14 | CCN1CCN(C(=O)N[C@@H](C(=O)N[C@H]2Cc3ccc(F)c(C(=O)O)c3OB2O)[C@@H](C)O)C(=O)C1=O [Example 110, (R)-3-((2R,3R)-2-(4-ethyl-2,3-dioxopiperazine-1-carboxamido)-3-hydroxybutanamido)-7-fluoro-2-hydroxy-3,4-dihydro-2H-benzo[e][1,2]oxaborinine-8-carboxylic acid] | 8 to 16 | 2 to 4 | 8 to 16 | 8 to 16 | 8 to 16 | 8 to 16 | – | –
15 | CCN1CCN(C(=O)NC(C(=O)N[C@H]2Cc3cccc(C(=O)O)c3OB2O)c2cccs2)C(=O)C1=O (stereo partly drawn) [Example 115, (3R)-3-(2-(4-ethyl-2,3-dioxopiperazine-1-carboxamido)-2-(thiophen-2-yl)acetamido)-2-hydroxy-3,4-dihydro-2H-benzo[e][1,2]oxaborinine-8-carboxylic acid] | 32 to 64 | < 0.25 | 2 to 4 | 8 to 16 | 32 to 64 | 32 to 64 | – | –
16 | CCN1CCN(C(=O)NC(C(=O)N[C@H]2Cc3cccc(C(=O)O)c3OB2O)c2cccc(O)n2)C(=O)C1=O (stereo partly drawn) [Example 117, (3R)-3-(2-(4-ethyl-2,3-dioxopiperazine-1-carboxamido)-2-(6-hydroxypyridin-2-yl)acetamido)-2-hydroxy-3,4-dihydro-2H-benzo[e][1,2]oxaborinine-8-carboxylic acid] | 32 to 64 | 0.5 to 1 | 2 to 4 | 8 to 16 | > 128 | 32 to 64 | – | –
17 | CCN1CCN(C(=O)NC(C(=O)N[C@H]2Cc3cccc(C(=O)O)c3OB2O)c2cnc(O)cn2)C(=O)C1=O (stereo partly drawn) [Example 121, (3R)-3-(2-(4-ethyl-2,3-dioxopiperazine-1-carboxamido)-2-(5-hydroxypyrazin-2-yl)acetamido)-2-hydroxy-3,4-dihydro-2H-benzo[e][1,2]oxaborinine-8-carboxylic acid] | 32 to 64 | 0.5 to 1 | 2 to 4 | 8 to 16 | 32 to 64 | 8 to 16 | – | –
